In patent US20230233541A1, “SUBSTITUTED BENZAMIDES AS MODULATORS OF TREX1” (Constellation Pharmaceuticals, Inc., priority 2020, published 2023):

How the values were obtained:
full length human TREX1 = molecular target: T1, full length human TREX1 (Homo sapiens, UniProt Q9NSU2); assay: TREX1 Biochemical Assay (fluorescence assay, degradation of dsDNA substrate); details: 150 pM TREX1, 60 nM dsDNA substrate, 25 minutes at room temperature; read-out: hTREX1 EC50
T1 construct: N-terminally His-Tev tagged full length human TREX1; His-Tev (His tag with TEV protease site) (N); made in house; host or cells: E. coli
T1 sequence (Q9NSU2 1-314): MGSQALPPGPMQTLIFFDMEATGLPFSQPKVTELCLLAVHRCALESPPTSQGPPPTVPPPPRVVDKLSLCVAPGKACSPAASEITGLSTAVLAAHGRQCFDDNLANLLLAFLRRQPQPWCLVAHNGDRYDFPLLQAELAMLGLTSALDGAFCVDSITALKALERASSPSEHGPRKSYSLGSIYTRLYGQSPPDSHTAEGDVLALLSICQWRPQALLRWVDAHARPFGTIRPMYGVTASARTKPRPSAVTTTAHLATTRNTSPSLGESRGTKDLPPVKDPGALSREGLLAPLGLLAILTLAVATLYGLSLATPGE
Experimental: Degradation of the dsDNA liberates free fluorophore to produce a fluorescent signal. Specifically, 7.5 μL of N-terminally His-Tev tagged full length human TREX1 (expressed in E. coli and purified in house) in reaction buffer (50 mM Tris (pH 7.4), 150 mM NaCl, 2 mM DTT, 0.1 mg/mL BSA, 0.01% (v/v) Tween-20 and 100 mM MgCl2) was added to a 384-well Black ProxiPlate Plus (Perkin Elmer) which already contained compound (150 nL) at varying concentrations as a 10-point dose-response in DMSO. To this was added 7.5 μL of dsDNA substrate (Strand A: 5′ TEX615/GCT AGG CAG 3′; Strand B: 5′ CTG CCT AGC/IAbRQSp (Integrated DNA Technologies)) in reaction buffer. Final concentrations were 150 pM TREX1, 60 nM dsDNA substrate in reaction buffer with 1.0% DMSO (v/v). After 25 minutes at room temperature, reactions were quenched by the addition of 5 μL of stop buffer (same as reaction buffer plus 200 mM EDTA). Final concentrations in the quenched reaction were 112.5 pM TREX1, 45 nM DNA and 50 mM EDTA in a volume of 20 μL. After a 5-minute incubation at room temperature, plates were read in a laser sourced Envision (Perkin-Elmer), measuring fluorescence at 615 nm following excitation w/570 nm light. IC50 values were calculated by comparing the measured fluorescence at 615 nm ratio relative to control wells pre-quenched w/stop buffer (100% inhibition) and no inhibitor (0% inhibition) controls as using non-linear least square four parameter fits and either Genedata or GraphPad Prism (GraphPad Software, Inc.).

[1] = molecular target: T2, human TREX2 (residues M44-A279) (Homo sapiens, UniProt Q9BQ50); assay: TREX2 Biochemical Assay (fluorescence assay, degradation of dsDNA substrate); details: 2.5 nM TREX2, 60 nM dsDNA substrate, 25 minutes at room temperature; read-out: hTREX2 EC50
T2 construct: human TREX2 (residues M44-A279, expressed in E. coli); His-Tev (His tag with TEV protease site) (N); made in house; host or cells: E. coli
T2 sequence (Q9BQ50 44-279 isoform Q9BQ50-1): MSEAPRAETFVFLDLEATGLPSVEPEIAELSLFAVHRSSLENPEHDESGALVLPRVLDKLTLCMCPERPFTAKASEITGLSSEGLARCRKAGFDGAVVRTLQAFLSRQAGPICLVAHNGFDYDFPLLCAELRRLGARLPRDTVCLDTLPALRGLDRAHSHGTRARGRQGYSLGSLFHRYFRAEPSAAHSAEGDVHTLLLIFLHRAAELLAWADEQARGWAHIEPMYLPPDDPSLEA
Experimental: Degradation of the dsDNA liberates free fluorophore to produce a fluorescent signal. Specifically, 7.5 μL of N-terminally His-Tev tagged human TREX2 (residues M44-A279, expressed in E. coli and purified in house) in reaction buffer (50 mM Tris (pH 7.4), 150 mM NaCl, 2 mM DTT, 0.1 mg/mL BSA, 0.01% (v/v) Tween-20 and 100 mM MgCl2) was added to a 384-well Black ProxiPlate Plus (Perkin Elmer) which already contained compound (150 nL) at varying concentrations as a 10-point dose-response in DMSO. To this was added 7.5 μL of dsDNA substrate (Strand A: 5′ TEX615/GCT AGG CAG 3′; Strand B: 5′ CTG CCT AGC/IAbRQSp (IDT)) in reaction buffer. Final concentrations were 2.5 nM TREX2, 60 nM dsDNA substrate in reaction buffer with 1.0% DMSO (v/v). After 25 minutes at room temperature, reactions were quenched by the addition of 5 μL of stop buffer (same as reaction buffer plus 200 mM EDTA). Final concentrations in the quenched reaction mixture were […] TREX2, 45 nM DNA and 50 mM EDTA in a volume of 20 μL. After a 5-minute incubation at room temperature, plates were read in a laser sourced Envision (Perkin-Elmer), measuring fluorescence at 615 nm following excitation w/570 nm light. IC50 values were calculated by comparing the measured fluorescence at 615 nm ratio relative to control wells pre-quenched w/stop buffer (100% inhibition) and no inhibitor (0% inhibition) controls as using non-linear least square four parameter fits and either Genedata or GraphPad Prism (GraphPad Software, Inc.).

SMILES | EC50 (full length human TREX1) [µM] | EC50 [1] [µM]
O=C(O)c1ccc(CN(Cc2cccc(Cl)c2C(F)(F)F)C(=O)c2cc(F)cc(F)c2)cn1 [Compound 198] | 0.1 to 1 | 10 to 100
O=C(c1cccc(F)c1)N(Cc1ccc(C(F)(F)F)nc1)Cc1ccc(Cl)cc1Cl [Compound 105] | > 10 | > 100
CC[C@@H](c1cccc(OC)c1C(F)(F)F)N(Cc1ccc(C(=O)O)nc1)C(=O)c1cc(F)cc(F)c1 [Compound 197] | < 0.1 | 1 to 10
CC(C)c1ccc(C(=O)N(Cc2cccnc2)Cc2cc(Cl)cc(Cl)c2)cc1 [Compound 51] | > 10 | > 100
O=C(c1ccc(Br)cc1Cl)N(Cc1cccnc1)Cc1cc(Cl)cc(Cl)c1 [Compound 70] | > 10 | > 100
O=C(O)CC[C@H](c1ccccc1Cl)N(Cc1cccnc1)C(=O)c1cc(F)cc(F)c1 [Compound 245] | 1 to 10 | 10 to 100
Nc1ccc(CN(Cc2ccc(Cl)cc2Cl)C(=O)c2cccc(F)c2)cn1 [Compound 146, N-[(6-aminopyridin-3-yl)methyl]-N-[(2,4-dichlorophenyl)methyl]-3-fluorobenzamide] | 1 to 10 | > 100
O=C(c1ccc(Oc2ccc(F)cc2)cc1)N(Cc1cccnc1)Cc1ccc(Cl)cc1Cl [Compound 39] | > 10 | > 100
O=C(c1ccc(Oc2ccc(Cl)cc2)cc1)N(Cc1cccnc1)Cc1ccc(Cl)cc1Cl [Compound 25] | 1 to 10 | > 100
CC(C)[C@@H](c1ccc(Cl)cc1Cl)N(Cc1cccnc1)C(=O)c1cccc(F)c1 (single isomer, unassigned) [Compound 160] | 1 to 10 | 10 to 100
O=C(c1ccccc1N1CCCCC1)N(Cc1cccnc1)Cc1cc(Cl)cc(Cl)c1 [Compound 46] | > 10 | > 100
CC[C@H](c1cccc(Cl)c1Cl)N(Cc1ccc(C(=O)O)nc1)C(=O)c1cc(F)cc(F)c1 [Compound 254] | < 0.1 | 1 to 10
O=C(O)c1ccc(CN(Cc2ccccc2Cl)C(=O)c2cc(F)cc(F)c2)cn1 [Compound 152] | < 0.1 | 1 to 10
CS(=O)(=O)NC(=O)c1ccc(CN(Cc2cccc(Cl)c2Cl)C(=O)c2cccc(F)c2)cn1 [Compound 259] | 1 to 10 | > 100
O=C(c1ccc(-c2ccccc2)cc1)N(Cc1cccnc1)Cc1cc(Cl)cc(Cl)c1 [Compound 58] | > 10 | > 100
CC[C@H](c1cccc(OC)c1Cl)N(Cc1ccc(C(=O)O)nc1)C(=O)c1cc(F)cc(F)c1 [Compound 166] | < 0.1 | 1 to 10
O=C(c1cc(F)cc(F)c1)N(Cc1ccc(-c2cc(=O)[nH][nH]2)nc1)Cc1ccccc1Cl [Compound 221] | 0.1 to 1 | 10 to 100
O=C(O)c1ccc(CN(Cc2c(Cl)cccc2Cl)C(=O)c2cc(F)cc(F)c2)cn1 [Compound 186] | < 0.1 | 1 to 10
O=C(c1ccc(CO)cc1F)N(Cc1cccnc1)Cc1ccc(Cl)cc1Cl [Compound 84] | > 10 | > 100
O=C(O)c1ncc(CN(Cc2cccc(Cl)c2Cl)C(=O)c2cc(F)cc(F)c2)cc1Cl [Compound 204] | 0.1 to 1 | 1 to 10
CC[C@H](c1ccc(Cl)cc1Cl)N(Cc1cccnc1)C(=O)c1cccc(F)c1 (single isomer, unassigned) [Compound 157] | 0.1 to 1 | 10 to 100
O=C(c1ccc(Cl)cc1Br)N(Cc1cccnc1)Cc1ccc(Cl)cc1Cl [Compound 14] | > 10 | 
O=C(c1ccccc1)N(Cc1cccnc1)Cc1ccc(Cl)cc1Cl [Compound 2] | 1 to 10 | > 100

SMILES | EC50 (full length human TREX1) [µM] | EC50 [1] [µM]
O=C(c1cc(F)cc(F)c1)N(Cc1cccnc1)[C@H](CCO)c1ccc(Cl)cc1Cl [Compound 260] | < 0.1 | 1 to 10
O=C(c1ccc(Cl)cc1O)N(Cc1cccnc1)Cc1ccc(Cl)cc1Cl [Compound 17] | > 10 | 
O=C(c1ccc(O)c(F)c1)N(Cc1cccnc1)Cc1cc(Cl)cc(Cl)c1 [Compound 57] | > 10 | > 100
Cc1ccc(C(=O)N(Cc2cccnc2)Cc2cc(Cl)cc(Cl)c2)c(Br)c1 [Compound 76] | > 10 | > 100
O=C(c1ccc(Cl)cc1Br)N(Cc1cccnc1)Cc1cc(Cl)cc(Cl)c1 [Compound 63] | > 10 | > 100
COc1cccc(CN(Cc2ccc(C(=O)O)nc2)C(=O)c2cc(F)cc(F)c2)c1C [Compound 195] | < 0.1 | 1 to 10
CC(C)c1ccc(C(=O)N(Cc2cccnc2)Cc2ccc(Cl)cc2Cl)cc1 [Compound 85] | > 10 | > 100
C[C@@H](c1ccc(C(N)=O)cc1Cl)N(Cc1cccnc1)C(=O)c1cccc(F)c1 (single isomer, unassigned) [Compound 164] | > 10 | 10 to 100
O=C(c1ccc(Cl)c(Cl)c1)N(Cc1cccnc1)Cc1cc(Cl)cc(Cl)c1 [Compound 75] | > 10 | > 100
COc1cccc([C@H](C)N(Cc2ccc(-c3ccn[nH]3)nc2)C(=O)c2cc(F)cc(F)c2)c1Cl [Compound 224] | 1 to 10 | 10 to 100
COc1cc(C(=O)N(Cc2cccnc2)Cc2ccc(Cl)cc2Cl)ccc1F [Compound 80] | > 10 | > 100
O=C(c1ccc(O)c(F)c1)N(Cc1cccnc1)Cc1ccc(Cl)cc1Cl [Compound 21] | > 10 | 
COc1cccc(C(=O)N(Cc2cccnc2)Cc2ccc(Cl)cc2Cl)c1 [Compound 13] | 1 to 10 | 
O=C(c1ccccc1F)N(Cc1cccnc1)Cc1ccc(Cl)cc1Cl [Compound 4] | > 10 | 
O=C(c1cc(Cl)ccc1O)N(Cc1cccnc1)Cc1ccc(Cl)cc1Cl [Compound 20] | > 10 | 
O=C(c1ccc(Cl)c(Cl)c1)N(Cc1cccnc1)Cc1ccc(Cl)cc1Cl [Compound 7] | > 10 | 
O=C(c1ccc(O)c(Cl)c1)N(Cc1cccnc1)Cc1ccc(Cl)cc1Cl [Compound 3] | > 10 | 
Cc1cc(C(=O)N(Cc2cccnc2)Cc2ccc(Cl)cc2Cl)ccc1Br [Compound 16] | > 10 | 
O=C(c1ccc(Br)cc1Cl)N(Cc1cccnc1)Cc1ccc(Cl)cc1Cl [Compound 18] | > 10 | 
O=C(c1ccc(Cl)cc1)N(Cc1cccnc1)Cc1ccc(Cl)cc1Cl [Compound 8] | > 10 | 
Cc1ccc(C(=O)N(Cc2cccnc2)Cc2ccc(Cl)cc2Cl)c(Br)c1 [Compound 9] | > 10 | 
O=C(c1ccc(O)c(Br)c1)N(Cc1cccnc1)Cc1ccc(Cl)cc1Cl [Compound 15] | > 10 | 
